Measured values reported in patent US11221321B2, “Liquid chromatographic method for the simultaneous analysis of antihypertensive and antilipidemic agents and interactions thereof” (Imam Abdulrahman Bin Faisal University, priority 2019, dated 2022).

Test: In vitro drug-drug interaction studies of sartan and statin in dissolution media by UV/Visible spectrophotometry
Assay type: physicochemical
Details: SGM and pH 4, 7.4, 9, 37° C., 2 hours; for interaction of losartan and atorvastatin (FIG. 7): LOS + ATR added together at 0 min; for interaction of valsartan and atorvastatin (FIG. 10): VAL + ATR added together at 0 min
Method: Interaction studies by UV/Visible spectrophotometry. In vitro interaction studies of antihypertensive drugs and antilipidemic agents were studied individually by using different kinds of dissolution media: SGM and media at pH 4, 7.4 and 9 as described in the experimental section.
In each set of experiments losartan or valsartan was initially added at 0 min to 500 mL dissolution medium SGM or media at pH 4, 7.4 and 9 already maintained at 37° C. The second drug, statin (ATOR, PRA or SIM) was added at the same time at zero mins. 5 mL samples were collected at regular intervals for 2 hours. The drug contents (losartan in presence of respective interacting drug, and valsartan in presence of respective interacting drug) were quantified spectrophotometrically at their respective λmax by employing simultaneous equations; FIGS. 7-12.
In FIG. 7, the drug contents (losartan in presence of respective interacting drug) were quantified spectrophotometrically at their respective λmax by employing simultaneous equations, that is, by using the molar absorptive value of the drug at a particular wavelength and a particular pH.
As the spectra of the two interacting drugs fused with each other, simultaneous methods were developed to determine losartan/valsartan and drugs of interacting classes along with each other. This technique enables one to quantitate the content of the two drugs co-existing in the same medium, without needing to separate them. To achieve this, molar absorptivity values of both losartan and the respective interacting drug were calculated at λmax of their own and at the λmax of each other using their calibration curves standards in all four pH medium.

Row | Structure (SMILES) | interaction of losartan and atorvastatin (FIG. 7) | interaction of valsartan and atorvastatin (FIG. 10) | interaction of losartan and pravastatin (FIG. 8) (LOS + PRA added together at 0 min) | interaction of losartan and simvastatin (FIG. 9) (LOS + SIM added together at 0 min) | interaction of valsartan and pravastatin (FIG. 11) (VAL + PRA added together at 0 min) | interaction of valsartan and simvastatin (FIG. 12) (VAL + SIM added together at 0 min)
1 | CC(C)c1c(C(=O)Nc2ccccc2)c(-c2ccccc2)c(-c2ccc(F)cc2)n1CC[C@@H](O)C[C@@H](O)CC(=O)O [ATR, Atorvastatin] | have undergone interaction | may interact in the digestive tract |  |  |  | 
2 | CCCCc1nc(Cl)c(CO)n1Cc1ccc(-c2ccccc2-c2nn[nH]n2)cc1 [LOS, Losartan] | have undergone interaction |  | may interact in the digestive tract | NOT available in their original form |  | 
3 | CCCCC(=O)N(Cc1ccc(-c2ccccc2-c2nnn[nH]2)cc1)[C@H](C(=O)O)C(C)C [VAL, Valsartan] |  | may interact in the digestive tract |  |  | may interact in the digestive tract | may interact in the digestive tract
